The nature of assay [1]: Inhibition of proteasome (unknown origin). More on the design: species or system Homo sapiens.
Assay [2] can be described thus: Inhibition of chymotrypsin-like activity of rabbit 20S proteasome using Suc-LLVY-AMC as substrate after 2 hrs by fluorescence assay. More on the design: species or system Oryctolagus cuniculus.
Assay [3] concerns the target T1, Proteasome Macropain subunit MB1 (Homo sapiens, UniProt P28074).
T1 sequence (P28074 whole entry): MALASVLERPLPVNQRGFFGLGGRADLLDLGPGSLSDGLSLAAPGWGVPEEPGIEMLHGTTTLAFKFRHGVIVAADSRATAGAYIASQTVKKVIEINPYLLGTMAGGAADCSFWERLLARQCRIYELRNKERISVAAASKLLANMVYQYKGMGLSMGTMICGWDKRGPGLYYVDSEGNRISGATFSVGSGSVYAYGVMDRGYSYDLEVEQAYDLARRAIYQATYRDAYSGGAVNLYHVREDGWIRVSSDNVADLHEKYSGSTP
Put plainly: Inhibition of chymotrypsin-like activity of human erythrocyte-derived 20S proteasome using Suc-LLVY-AMC as substrate preincubated for 10 mins followed by substrate addition measured every 15 secs for 30 mins by fluorescence assay.

Our source for the Ki and IC50 values is ChEMBL document CHEMBL3576823, “Cystargolides, 20S Proteasome Inhibitors Isolated from Kitasatospora cystarginea” (J Nat Prod, 2015).

One may read the Ki as a dissociation constant, usually derived from enzyme kinetics or from competition with a known ligand. High values mean a looser hold on the target, low ones a stronger hold on the target. With `CC(C)C[C@H](NC(=O)[C@H](Cc1ccccc1)NC(=O)c1cnccn1)B(O)O` [BORTEZOMIB], the affinity in assay [1], expressed as Ki, was 0.6 nM.

As a reminder, the IC50 is the point on the concentration scale where inhibition reaches its midpoint. A higher IC50 goes with weaker potency. On to `CC(C)C[C@H](NC(=O)[C@H](CCc1ccccc1)NC(=O)CN1CCOCC1)C(=O)N[C@@H](Cc1ccccc1)C(=O)N[C@@H](CC(C)C)C(=O)[C@@]1(C)CO1` [CARFILZOMIB], for which it took 5 nM to reach half-maximal inhibition in assay [1] (IC50).

Compound `CC[C@H](C)[C@@H]1C(=O)O[C@H]1C(=O)N[C@H]1C[C@H]1C[C@H](NC(=O)[C@H](C)N)C(=O)O` [BELACTOSIN A] gave an IC50 in assay [2] of 210 nM.

`CC[C@H](C)[C@H](NC(=O)[C@@H](NC(=O)C1OC(=O)C1C(C)C)C(C)C)C(=O)O` (stereo not given in full) came in with a half-maximal inhibitory concentration (IC50) in assay [3] of 360 nM. That is a sub-micromolar value.

On to `CC[C@H](C)[C@@H]1C(=O)O[C@H]1C(=O)NCCC[C@H](NC(=O)[C@H](C)N)C(=O)O` [BELACTOSIN C], for which, in assay [2], the IC50 stood at 210 nM.
